Source: publication PMC8037182, “Solvothermal Synthesis of Multiple Dihydropyrimidinones at a Time as Inhibitors of Eg5” (Molecules, 2021)

System: L929 cell line
Test: Cytotoxicity MTS assay, L929 cell line
Assay type: cell-based
Details: for OD490 values, Mean / OD490 values, Well 1 / OD490 values, Well 2 / OD490 values, Well 3: L929 cell line
Protocol: The positive compounds (IC50 < 100 μM) obtained from the primary Eg5 motor protein ATPase assay were tested for antiproliferative activity in vitro against Caco-2 cell line, Hela cell line, L929 cell line and T24 cell line by performing MTS assay. Cells were introduced into 96-well plates at a density of 1000 cells per well. After 24 h incubation, the cells were exposed with compounds at final concentrations ranging from 0.5 to 100 µM for 24 h. DMSO was used at a final concentration of 0.025% as blank control, monastrol was used as the positive control. Then 20 µL (CellTiter 96® AQueous One Solution Promega, Madison, WI, USA) reagent was added in each well. After 2 h at 37 °C in a 80% humidified, 5% CO2 atmosphere, the absorbance at 490 nm was recorded using a microplate reader (BIO-RAD iMark^TM). The results were obtained in three independent duplicate experiments. The primary data were shown in Supplementary Materials Tables S4–S7. The IC50 values for these compounds were calculated from a non-linear regression graph plotted between the percentage of cell viability and concentration with SPSS17.0 software.

## CCOC(=O)c1[nH]c(C2NC(=O)NC(C)=C2C(=O)Nc2ccccc2C)c(C(=O)OC)c1C (stereo not shown) [D4]
0.5μM, first assay
  OD490 values, Mean: 1.2390
  OD490 values, Well 1: 1.2664
  OD490 values, Well 2: 1.2769
  OD490 values, Well 3: 1.1737
0.5μM, second assay
  OD490 values, Mean: 1.6699
  OD490 values, Well 1: 1.5847
  OD490 values, Well 2: 1.7925
  OD490 values, Well 3: 1.6324
0.5μM, third assay
  OD490 values, Mean: 1.6193
  OD490 values, Well 1: 1.5741
  OD490 values, Well 2: 1.5987
  OD490 values, Well 3: 1.6852
1μM, first assay
  OD490 values, Mean: 1.1804
  OD490 values, Well 1: 1.2290
  OD490 values, Well 2: 1.2817
  OD490 values, Well 3: 1.0306
1μM, second assay
  OD490 values, Mean: 1.6792
  OD490 values, Well 1: 1.5848
  OD490 values, Well 2: 1.6985
  OD490 values, Well 3: 1.7542
1μM, third assay
  OD490 values, Mean: 1.5459
  OD490 values, Well 1: 1.5698
  OD490 values, Well 2: 1.5478
  OD490 values, Well 3: 1.5202
10μM, first assay
  OD490 values, Mean: 1.0446
  OD490 values, Well 1: 1.1408
  OD490 values, Well 2: 0.9532
  OD490 values, Well 3: 1.0397
10μM, second assay
  OD490 values, Mean: 1.6098
  OD490 values, Well 1: 1.5562
  OD490 values, Well 2: 1.5879
  OD490 values, Well 3: 1.6852
10μM, third assay
  OD490 values, Mean: 1.5291
  OD490 values, Well 1: 1.5364
  OD490 values, Well 2: 1.5879
  OD490 values, Well 3: 1.4630
25μM, first assay
  OD490 values, Mean: 0.9627
  OD490 values, Well 1: 0.8216
  OD490 values, Well 2: 0.8395
  OD490 values, Well 3: 1.2269
25μM, second assay
  OD490 values, Mean: 1.4236
  OD490 values, Well 1: 1.4545
  OD490 values, Well 2: 1.4879
  OD490 values, Well 3: 1.3285
25μM, third assay
  OD490 values, Mean: 1.2968
  OD490 values, Well 1: 1.3325
  OD490 values, Well 2: 1.3214
  OD490 values, Well 3: 1.2365
50μM, first assay
  OD490 values, Mean: 0.9261
  OD490 values, Well 1: 0.8106
  OD490 values, Well 2: 0.9635
  OD490 values, Well 3: 1.0043
50μM, second assay
  OD490 values, Mean: 1.2976
  OD490 values, Well 1: 1.3201
  OD490 values, Well 2: 1.2240
  OD490 values, Well 3: 1.3487
50μM, third assay
  OD490 values, Mean: 1.2105
  OD490 values, Well 1: 1.1145
  OD490 values, Well 2: 1.2301
  OD490 values, Well 3: 1.2869
100μM, first assay
  OD490 values, Mean: 0.7075
  OD490 values, Well 1: 0.8384
  OD490 values, Well 2: 0.6461
  OD490 values, Well 3: 0.6379
100μM, second assay
  OD490 values, Mean: 0.8731
  OD490 values, Well 1: 0.9062
  OD490 values, Well 2: 0.8662
  OD490 values, Well 3: 0.8469
100μM, third assay
  OD490 values, Mean: 0.8397
  OD490 values, Well 1: 0.8652
  OD490 values, Well 2: 0.7214
  OD490 values, Well 3: 0.9325
MTS assay, 24 h exposure, ordinary fibroblast, not cancer cells
  IC50: 94.5 µM
